Broadly, the GI50 is the concentration at which growth is held to half of that of the control.

Data set [1] deals with sixty human tumour cell lines. The data set can be described thus: In vitro cytotoxicity (SRB), mean graph midpoints. The data set is classed as cell-based. Particulars: 48 h exposure. As for the experimental part: (§1) The compounds were evaluated for in vitro anticancer activity against sixty human tumour cells derived from nine cancer types (leukemia, non-small-cell lung, colon, CNS, melanoma, ovarian, prostate, and breast cancer) as shown in Table 1a. For each compound, dose response curves for each cell line were measured at a minimum of five concentrations at 10 fold dilutions. A protocol of 48 h continuous drug exposure was used and a sulforhodamine B (SRB) protein assay was used to estimate cell viability or growth. The concentration causing 50% cell growth inhibition (GI50), total cell growth inhibition (TGI 0% growth) and 50% cell death (LC50, −50% growth) compared with the control was calculated. The Log10 GI50 (concentration in mol/L causing 50% growth inhibition) values for Cinnamido-pyrrolo[2,1-c][1,4]benzodiazepine (8b) is listed in Table 2.

The next data set relates to HS 578T. The experiment in a line: In vitro cytotoxicity (SRB). Particulars: HS 578T (Breast); 48 h continuous drug exposure. In kind it is cell-based, human. The procedure:
as §1

Another data set relates to NCI-H460. The experiment in a line: In vitro cytotoxicity (SRB). The data set is classed as cell-based, human. Particulars: NCI-H460 (Non-small cell lung); 48 h continuous drug exposure. The procedure:
as §1

In a further data set the test system is RPMI-8226. The data set can be described thus: In vitro cytotoxicity (SRB). The data set is classed as cell-based, human. Particulars: RPMI-8226 (Leukemia); 48 h continuous drug exposure. As for the experimental part:
as §1

For a further data set, the system named is SK-MEL-28. The experiment in a line: In vitro cytotoxicity (SRB). The data set is classed as cell-based, human. Particulars: SK-MEL-28 (Melanoma); 48 h continuous drug exposure. As for the experimental part:
as §1

The next data set has as its system SK-OV-3. The experiment in a line: In vitro cytotoxicity (SRB). In kind it is cell-based, human. Particulars: SK-OV-3 (Ovarian); 48 h continuous drug exposure. As for the experimental part: as §1

In the case of `COc1cc(/C=C/C(=O)N2CCN(C(=O)c3cc(OC)c(OC)c(OC)c3)CC2)ccc1OCCCOc1cc2c(cc1OC)C(=O)N1CCC[C@H]1C=N2` [8b, 7-methoxy-8-{3-(2-methoxy-4-(E)-3-oxo-3-[4-(3,4,5-trimethoxybenzoyl)piperazino]-1-propenylphenoxy)propoxy}-(11aS)-2,3,5,11^a-tetrahydro-5H-pyrrolo[2,1-c][1,4]benzo-diazepine-5-one], in data set [1], the “Log10 GI50 mean graph midpoint (MG_MID)” value is −6.48 mol/L. Besides, the “Log10 LC50 mean graph midpoint (MG_MID)” value in data set [1] is on record as −4.5. The “Log10 TGI mean graph midpoint (MG_MID)” value in data set [1] is given as −5.59. Moreover, the GI50 was determined as 0.31 µM in the data set with HS 578T; 0.33 µM with NCI-H460; 0.65 µM with RPMI-8226; 0.21 µM with SK-MEL-28; 0.49 µM in the data set on SK-OV-3.
